Experimental data as given in US10407421B2, “Bicyclic aryl monobactam compounds and methods of use thereof for the treatment of bacterial infections” (priority 2016, dated 2019).
Where a name gives a salt, the structure may show the parent alone.

Key:
Format in all cases: cell-based
Conditions in all cases: in the presence of β lactamase inhibitor Relebactam 4 μg/mL; 22 hours at 35±2° C.; lowest concentration inhibiting 95% of growth (OD600)
[1] = test system: Acinetobacter baumannii expressing TEM-1, AmpC, and Oxa-24/40 (CL6188); experiment: Growth inhibitory concentration (OD600), Acinetobacter baumannii CL6188
Description: (§1) Antibiotic Activity: Determination of Growth Inhibitory Concentration
(§2) The concentrations of compounds required to inhibit the growth of various strains of bacteria were determined in an assay that assessed bacterial growth by measuring optical density at 600 nm (OD600). The bacterial strains tested included the clinical strains Escherichia coli expressing NDM-1 (CLB30016), Klebsiella pneumoniae expressing KPC-1 (CL6569), Acinetobacter baumannii expressing TEM-1, AmpC, and Oxa-24/40 (CL6188) and Pseudomonas aeruginosa expressing AmpC (CL5701). All compounds were tested in the presence of a β lactamase inhibitor (BLi, Relebactam) in 384-well microplates. The clinical strains were stored as frozen single use stocks, thawed and diluted into 1.1× cation-adjusted Mueller-Hinton II broth to achieve approximately 2×10^5 CFU/mL. Test compounds were dissolved in DMSO and diluted 1:50 in the assay, resulting in a final concentration range of 100 μM to 0.098 μM. […] At the end of the incubation, absorbance at 600 nm was determined using a spectrophotometer. Inhibition was quantitated by identifying the lowest concentration of test compound that was required to inhibit 95% of the growth of the bacteria. The results for Examples 1-73 are reported in Table I, expressed as the concentration of compound that inhibited 95% of bacterial growth (Minimum Inhibitory Threshold Concentration; MITC95).

[2] = test system: Escherichia coli expressing NDM-1 (CLB30016); experiment: Growth inhibitory concentration (OD600), Escherichia coli CLB30016
Description: as §1, §2

[3] = test system: Klebsiella pneumoniae expressing KPC-1 (CL6569); experiment: Growth inhibitory concentration (OD600), Klebsiella pneumoniae CL6569
Description: as §1, §2

[4] = test system: Pseudomonas aeruginosa expressing AmpC (CL5701); experiment: Growth inhibitory concentration (OD600), Pseudomonas aeruginosa CL5701
Description: as §1, §2

## C[n+]1c2ccc(OC[C@H](O/N=C(\C(=O)N[C@@H]3C(=O)N(OS(=O)(=O)[O-])C3(C)C)c3csc(N)n3)C(=O)O)cc2cn1C[C@H](O)CN [Example 51, (S)-3-((Z)-2-(((S)-2-((2-((R)-3-amino-2-hydroxypropyl)-1-methyl-2H-indazol-1-ium-5-yl)oxy)-1-carboxyethoxy)imino)-2-(2-aminothiazol-4-yl)acetamido)-2,2-dimethyl-4-oxoazetidin-1-yl Sulfate]
[1]
  AB_CL6188 MITC95: 6.25 µM
[2]
  EC_CLB30016 MITC95: 25 µM
[3]
  KP_CL6569 MITC95: 0.78 µM
[4]
  PA_CL5701 MITC95: 12.5 µM
